Consider one compound from publication PMC12498136, “Synthesis and biological evaluation of novel carnosic acid derivatives with anticancer activity” (RSC Advances, 2025).

In the assay the test system is CDK4. Description: Western blot of CDK4 levels in SW480 cells. The format is cell-based. Conditions: SW480, 6.3 μM, relative to control. The protocol: SW480 cells were seeded in 6-well plates and treated as described in the previous subsection. After 24, 48 or 72 h of incubation, adherent cells were washed twice with ice-cold DPBS and incubated with lysis buffer (0.2% Triton X-100, 0.5 mM sodium deoxycholate, 1 mM Na-EDTA, 1 mM DTT, 20 mM Tris–HCl (pH 7.5), 0.5% phosphatases inhibitor cocktail, and 1% proteases inhibitor cocktail) for 30 min at 4 °C. The cells were scraped, sonicated, and centrifuged at 120 00 × g (20 min at 4 °C). […] The gels were then transferred to PVDF membranes, which were blocked with 5% skim milk in PBS-Tween-20 (0.1%) for 1 h at room temperature. Subsequently, the membranes were incubated with the primary antibodies for 30 mi at room temperature (actin) or overnight at 4 °C (CDK4, CDK6, cyclin A, Rb and SOD2/MnSOD). After incubation, the membranes were washed with PBS-Tween-20 (0.1%) and incubated with anti-mouse secondary antibody (40 min) or anti-rabbit secondary antibody (1 h) at room temperature. Finally, the membranes were washed with PBS-Tween-20 (0.1%) and treated with the Immobilon Western Chemiluminescent HRP Substrate Kit, and autoradiography was performed using an FPM-100A film processor (Fujifilm, Tokyo, Japan). western blot results were obtained from three independent experiments, except for cyclin A at 24 h (n = 2), Rb protein at 24 and 72 h (n = 2), and SOD2 (MnSOD) at 72 h (n = 2).

On to `CC(=O)Oc1c(C(C)C)cc2c(c1OC(C)=O)[C@@]1(NC(=O)OCC(C)C)CCCC(C)(C)[C@@H]1CC2` [Compound 17, (4bR,8aS)-8,8-Dimethyl-4b-{[(2-methylpropoxy)carbonyl]amino}-2-(propan-2-yl)-4b,5,6,7,8,8a,9,10-octahydrophenanthrene-3,4-diyl diacetate], for which the CDK4 protein level entry runs as follows: (24 h) “significantly reduced”; (48 h) “lower than those in the control group”; (72 h) “reduction”.
